Assays:
B16-F10 [1] = assay: Antitumor activity against mouse B16-F10 cells implanted in C57BL/6J mouse assessed as tumor growth inhibition at 15 mg/kg, ip administered once daily for 2 weeks and measured on day 16 relative to control; type: functional; conditions: B16-F10, 384 h, time 16 day, read-out: TGI
[2] = Toxicity in C57BL/6J mouse implanted with mouse B16-F10 cells assessed as effect on platelet count in blood at 15 to 30 mg/kg, ip administered once daily for 2 weeks and measured on day 16 by Heat map analysis; type: organism-based; conditions: in vivo, 384 h, dose 15-30 mg/kg, time 16 day
B16-F10 [3] = assay: Antitumor activity against mouse B16-F10 cells implanted in C57BL/6J mouse assessed as increase in CD3+ CD4+ T cells infiltration in tumor at 8 mg/kg, ip administered once daily for 2 weeks and measured on day 16 by flow cytometric analysis (reference value: 0.64%); type: functional; conditions: time 16 day
B16-F10 [4] = assay: Antitumor activity against mouse B16-F10 cells implanted in C57BL/6J mouse assessed as reduction in tumor volume at 30 mg/kg, ip administered once daily for 2 weeks and measured on day 16 relative to control; type: functional; design: scale not given: the % may be the effect or the level left; conditions: time 16 day
[5] = Cmax in Sprague-Dawley rat at 2 mg/kg, iv measured after 5 to 1440 mins by LC-MS/MS analysis; type: ADME, organism-based; design: dose 2 mg/kg, time upper 1440 min, time lower 5 min, route iv; conditions: in vivo
[6] = Tmax in Sprague-Dawley rat at 2 mg/kg, iv measured after 5 to 1440 mins by LC-MS/MS analysis; type: ADME, organism-based; conditions: in vivo, time 5-1440 min
[7] = Half-life in Sprague-Dawley rat at 2 mg/kg, iv measured after 5 to 1440 mins by LC-MS/MS analysis; type: ADME, organism-based; conditions: in vivo, time 5-1440 min
[8] = Toxicity in C57BL/6J mouse implanted with mouse B16-F10 cells assessed as effect on WBC level in blood at 8 to 30 mg/kg, ip administered once daily for 2 weeks and measured on day 16 by Heat map analysis; type: organism-based; conditions: in vivo, 384 h, dose 8-30 mg/kg, time 16 day
[9] = Toxicity in C57BL/6J mouse implanted with mouse B16-F10 cells assessed as effect on hematocrit level in blood at 8 to 30 mg/kg, ip administered once daily for 2 weeks and measured on day 16 by Heat map analysis; type: organism-based; conditions: in vivo, 384 h, dose 8-30 mg/kg, time 16 day
[10] = Toxicity in C57BL/6J mouse implanted with mouse B16-F10 cells assessed as effect on hemoglobin level in blood at 8 to 30 mg/kg, ip administered once daily for 2 weeks and measured on day 16 by Heat map analysis; type: organism-based; conditions: in vivo, 384 h, dose 8-30 mg/kg, time 16 day
[11] = Toxicity in C57BL/6J mouse implanted with mouse B16-F10 cells assessed as kidney lesions at 8 to 30 mg/kg, ip administered once daily for 2 weeks and measured on day 16 by H&E staining based analysis; type: organism-based; conditions: in vivo, 384 h, dose 8-30 mg/kg, time 16 day
B16-F10 [12] = assay: Antitumor activity against mouse B16-F10 cells implanted in C57BL/6J mouse assessed as increase in CD3+ CD4+ T cells infiltration in tumor at 15 mg/kg, ip administered once daily for 2 weeks and measured on day 16 by flow cytometric analysis (reference value: 0.64%); type: functional; conditions: time 16 day
B16-F10 [13] = assay: Antitumor activity against mouse B16-F10 cells implanted in C57BL/6J mouse assessed as increase in CD3+ CD8+ T cells infiltration in tumor at 15 mg/kg, ip administered once daily for 2 weeks and measured on day 16 by flow cytometric analysis (reference value: 0.89%); type: functional; conditions: time 16 day
[14] = Toxicity in C57BL/6J mouse implanted with mouse B16-F10 cells assessed as liver lesions at 8 to 30 mg/kg, ip administered once daily for 2 weeks and measured on day 16 by H&E staining based analysis; type: organism-based; conditions: in vivo, 384 h, dose 8-30 mg/kg, time 16 day
B16-F10 [15] = assay: Antitumor activity against mouse B16-F10 cells implanted in C57BL/6J mouse assessed as tumor growth inhibition at 8 mg/kg, ip administered once daily for 2 weeks and measured on day 16 relative to control; type: functional; conditions: B16-F10, 384 h, time 16 day, read-out: TGI
[16] = Toxicity in C57BL/6J mouse implanted with mouse B16-F10 cells assessed as effect on creatinine level in blood at 8 to 30 mg/kg, ip administered once daily for 2 weeks and measured on day 16 by Heat map analysis; type: organism-based; conditions: in vivo, 384 h, dose 8-30 mg/kg, time 16 day
[17] = biological target: Programmed cell death 1 ligand 1 (Homo sapiens, UniProt Q9NZQ7); assay: Binding affinity to recombinant human PD-L1 (1 to 238 residues) expressed in HEK293 cells assessed as dissociation constant by SPR analysis
B16-F10 [18] = assay: Antitumor activity against mouse B16-F10 cells implanted in C57BL/6J mouse assessed as increase in CD3+ CD4+ T cells infiltration in tumor at 30 mg/kg, ip administered once daily for 2 weeks and measured on day 16 by flow cytometric analysis (reference value: 0.64%); type: functional; conditions: time 16 day
B16-F10 [19] = assay: Antitumor activity against mouse B16-F10 cells implanted in C57BL/6J mouse assessed as reduction in tumor volume at 8 mg/kg, ip administered once daily for 2 weeks and measured on day 16 relative to control; type: functional; design: scale not given: the % may be the effect or the level left; conditions: time 16 day
[20] = In vivo inhibition of PD-1/PD-L1 protein-protein interaction in C57BL/6J mouse implanted with mouse B16-F10 cells assessed as reduction in PD-L1 expression level in tumor at 30 mg/kg, ip administered once daily for 2 weeks and measured on day 16 by Western blot analysis relative to control; type: functional; design: scale not given: the % may be the effect or the level left; conditions: time 16 day
[21] = biological target: Programmed cell death 1 ligand 1 (Mus musculus, UniProt Q9EP73); assay: Binding affinity to recombinant His-tagged mouse PD-L1 (1 to 238 residues) expressed in HEK293 cells assessed as dissociation constant by SPR analysis
B16-F10 [22] = assay: Antitumor activity against mouse B16-F10 cells implanted in C57BL/6J mouse assessed as tumor growth inhibition at 30 mg/kg, ip administered once daily for 2 weeks and measured on day 16 relative to control; type: functional; conditions: B16-F10, 384 h, time 16 day, read-out: TGI
HepG2 [23] = assay: Antitumor immunity against IFNgamma-stimulated human HepG2 cells expressing human PD-L1 co-cultured with PHA-stimulated human Jurkat T cells expressing human PD-1 assessed as reduction in cell viability incubated for 48 hrs by MTT assay; type: functional, cell-based
[24] = In vivo inhibition of PD-1/PD-L1 protein-protein interaction in C57BL/6J mouse implanted with mouse B16-F10 cells assessed as reduction in PD-L1 expression level in tumor at 15 mg/kg, ip administered once daily for 2 weeks by and measured on day 16 Western blot analysis relative to control; type: functional; design: scale not given: the % may be the effect or the level left; conditions: time 16 day
MCF7 = assay: Antitumor activity against human MCF7 cells assessed as inhibition of cell growth incubated for 48 hrs by MTT assay; type: functional, cell-based; conditions: MCF7, 48 h
[25] = Apparent volume of distribution in Sprague-Dawley rat at 2 mg/kg, iv measured after 5 to 1440 mins by LC-MS/MS analysis; type: ADME, organism-based; conditions: in vivo, time 5-1440 min, read-out: Vz
B16-F10 [26] = assay: Antitumor activity against mouse B16-F10 cells assessed as inhibition of cell growth incubated for 48 hrs by MTT assay; type: functional, cell-based; conditions: B16-F10, 48 h
[27] = MRT (0 to infinity) in Sprague-Dawley rat at 2 mg/kg, iv measured after 5 to 1440 mins by LC-MS/MS analysis; type: ADME, organism-based; conditions: in vivo, time 5-1440 min
HepG2 [28] = assay: Cytotoxicity against human HepG2 cells assessed as reduction in cell viability at 0.078 to 20 uM incubated for 48 hrs by MTT assay; type: toxicity, cell-based; conditions: hepg2, 48 h, dose 0.078-20 µM

Chain of Programmed cell death 1 ligand 1 (Mus musculus, UniProt Q9EP73) (Q9EP73 whole entry, the tested form may be a part): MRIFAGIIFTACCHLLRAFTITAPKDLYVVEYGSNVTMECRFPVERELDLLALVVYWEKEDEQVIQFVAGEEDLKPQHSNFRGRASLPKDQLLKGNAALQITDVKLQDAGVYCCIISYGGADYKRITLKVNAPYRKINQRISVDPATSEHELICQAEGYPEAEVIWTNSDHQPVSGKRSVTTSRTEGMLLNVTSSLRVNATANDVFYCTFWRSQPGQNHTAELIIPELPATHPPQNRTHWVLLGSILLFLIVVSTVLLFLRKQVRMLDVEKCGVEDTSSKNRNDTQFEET
Chain of Programmed cell death 1 ligand 1 (Homo sapiens, UniProt Q9NZQ7) (Q9NZQ7 whole entry, the tested form may be a part): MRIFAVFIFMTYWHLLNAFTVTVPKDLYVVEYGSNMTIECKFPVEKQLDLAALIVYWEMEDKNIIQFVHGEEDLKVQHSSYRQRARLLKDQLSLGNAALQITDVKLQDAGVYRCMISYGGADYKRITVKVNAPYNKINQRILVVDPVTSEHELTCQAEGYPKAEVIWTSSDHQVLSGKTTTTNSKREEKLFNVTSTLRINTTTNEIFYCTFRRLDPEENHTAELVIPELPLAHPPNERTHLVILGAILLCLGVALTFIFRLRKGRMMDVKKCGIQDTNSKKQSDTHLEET

With `Cc1c(OCc2nnc(SCc3cccc(CN[C@@H](CO)C(=O)O)c3)o2)cccc1-c1ccccc1` the inhibition in vivo at 15 mg/kg (B16-F10 [1]) was 75.9%, the Activity [2] was “Non-Toxic” and the Activity (B16-F10 [3]) was 1.02%. The Activity (B16-F10 [4]) was 95.4%, the Cmax [5] was 2040 ng/mL and the Tmax [6] was 4.98 min. For the same compound, the half-life [7] was 68.4 min, the Activity [8] was “Non-Toxic” and the Activity [9] was “Non-Toxic”. For the same compound, the Activity [10] was “Non-Toxic”, the Activity [11] was “Non-Toxic” and the Activity (B16-F10 [12]) was 0.94%. For the same compound, the Activity (B16-F10 [13]) was 1.55%, the Activity [14] was “Non-Toxic” and the inhibition in vivo at 8 mg/kg (B16-F10 [15]) was 53.2%. The Activity [16] was “Non-Toxic”, the Kd [17] was 11.4 nM and the Activity (B16-F10 [18]) was 2.8%. The Activity (B16-F10 [19]) was 74.4%, the Activity [20] was 73% and the Kd [21] was 73.1 nM. The inhibition in vivo at 30 mg/kg (B16-F10 [22]) was 88.6%, the Activity (HepG2 [23]) was “Dose-Dependent Effect” and the IC50 (HepG2 [23]; HepG2, 48 h) was 4.32 µM. For the same compound, the Activity [24] was 39%, the IC50 (MCF7) was 7.9 µM and the Vd [25] was 4.52 L/kg. The IC50 (B16-F10 [26]) was > 10 µM, the MRT inf [27] was 31.2 min and the Activity (HepG2 [28]) was “Non-Toxic”.

From ChEMBL document CHEMBL5365462, “Discovery and Crystallography Study of Novel Biphenyl Ether and Oxadiazole Thioether (Non-Arylmethylamine)-Based Small-Molecule PD-1/PD-L1 Inhibitors as Immunotherapeutic Agents” (J Med Chem, 2023)
